US11590142B2, “Oxazolidinone antibiotic compounds and process of preparation” (Bugworks Research, Inc., priority 2018, dated 2023)
≈ marks a conversion by molar mass, not a printed value.

Experiments:
Format in all cases: cell-based
[1] = test system: E. coli clinical strains; assay: Antibacterial susceptibility studies (MIC50 and MIC90), clinical strains, CLSI guidelines; conditions: for MIC50 / MIC90: Escherichia coli; for MIC50: read-out: MIC50; for MIC90: read-out: MIC90
[2] = test system: Enterococcus faecalis ATCC 29212; assay: Minimum Inhibitory Concentration (MIC) in LB media; conditions: ATCC29212, read-out: Minimum Inhibitory Concentration E. faecalis ATCC 29212
Procedure: (§1) Biological Activity (Antibacterial activity): The compounds of Formula (I) are of interest due to their potent antibacterial effects. […] The medium sterility is checked by incubating at 37° C. for a period of 48 h. Bacterial cultures that are stored as glycerol stocks at -80° C. are sub cultured on LB agar plates to obtain isolated colonies. A single colony of each strain is cultured in LB broth. The cultures are incubated at 37° C., 200 rpm till they reach an optical density (OD at 600 nm) of 0.8 to 1. […] Test compounds are dissolved in dimethyl sulfoxide (DMSO) to a stock concentration of 4 mg/mi. A twofold dilution series of this DMSO stock is prepared in a 96 well V bottom microtitre plate from rows A to H. A 3 μL volume of these dilutions are transferred to a 96-well flat bottom microtitre assay plate. Controls to monitor the effects of DMSO and media sterility are included. Each well is inoculated with 150 μL of the above diluted culture. The plates are incubated at 37° C. overnight in a humidified incubator. The following morning, the plates are read using a Spectrophotometer at 600 nm wavelength.

[3] = test system: Klebsiella pneumoniae ATCC 13883; assay: Minimum Inhibitory Concentration (MIC) in LB media; conditions: ATCC13883, read-out: Minimum Inhibitory Concentration K. pneumoniae ATCC 13883
Procedure: as §1

[4] = test system: Pseudomonas aeruginosa ATCC 27853; assay: Minimum Inhibitory Concentration (MIC) in LB media; conditions: ATCC27853, read-out: Minimum Inhibitory Concentration P. aurigenosa ATCC 27853
Procedure: as §1

[5] = test system: Escherichia coli ATCC 25922; assay: Minimum Inhibitory Concentration (MIC) in LB media; conditions: ATCC25922, read-out: Minimum Inhibitory Concentration E. coli ATCC 25922
Procedure: as §1

[6] = test system: Staphylococcus aureus ATCC 29213; assay: Minimum Inhibitory Concentration (MIC) in LB media; conditions: ATCC29213, read-out: Minimum Inhibitory Concentration S. aureus ATCC 29213
Procedure: as §1

[7] = test system: Acinetobacter baumannii ATCC 19606; assay: Minimum Inhibitory Concentration (MIC) in LB media; conditions: ATCC19606
Procedure: as §1

[8] = test system: A. baumannii clinical strains; assay: Antibacterial susceptibility studies (MIC50 and MIC90), clinical strains, CLSI guidelines; conditions: for MIC50 / MIC90: Acinetobacter baumannii; for MIC50: read-out: MIC50; for MIC90: read-out: MIC90; for Minimum (MIC): in µg/mL
[9] = test system: E. cloacae clinical strains; assay: as above; conditions: for MIC50 / MIC90: Enterobacter cloacae; for MIC50: read-out: MIC50; for MIC90: read-out: MIC90
[10] = test system: K. pneumoniae clinical strains; assay: as above; conditions: for MIC50 / MIC90: Klebsiella pneumoniae; for MIC50: read-out: MIC50; for MIC90: read-out: MIC90
[11] = test system: A. baumannii ATCC19606; assay: Antibacterial susceptibility study, reference strain, CLSI guidelines
[12] = test system: K. pneumoniae ATCC13883; assay: as above
[13] = test system: E. coli ATCC25922; assay: as above
[14] = test system: P. aurigenosa ATCC27853; assay: as above
[15] = biological target: human ether a go-go related gene (hERG) K+ channel (Homo sapiens (Human), UniProt Q12809); assay: hERG inhibition assay, QPatch HTX automated electrophysiology; conditions: CHO cell line stably expressing hERG, whole-cell patch clamp, maximum test concentration 300 μM
Procedure: The compounds were tested for inhibition of the human ether a go-go related gene (hERG) K+ channel using QPatch HTX automated electrophysiology. […] Compounds were solubilised to 100 mM in DMSO before dilution in HBPS to 300 μM. […] Electrophysiological recordings were made from a Chinese Hamster Ovary cell line stably expressing the full-length hERG potassium channel. Single cell ionic currents were measured in whole-cell patch clamp configuration at room temperature (21-23° C.) using the QPatch HTX platform (Sophion). Intracellular solution contained (mM): 120 KF, 20 KCl, 10 EGTA, 10 HEPES and was buffered to pH 7.3. […] Cells were clamped at a holding potential of −80 mV. Cells were stepped to +20 mV for 2 s then −40 mV for 3s before returning to the holding potential. This sweep was repeated 10 times at 10 s intervals. hERG currents were measured from the tail step and referenced to the holding current. Compounds were then incubated for 2 minutes prior to a second measurement of ion channel current using an identical pulse train.

[16] = test system: P. aurigenosa clinical strains; assay: Antibacterial susceptibility studies (MIC50 and MIC90), clinical strains, CLSI guidelines; conditions: for MIC50: read-out: MIC50; for MIC90: read-out: MIC90

Chain of human ether a go-go related gene (hERG) K+ channel (Q12809 whole entry): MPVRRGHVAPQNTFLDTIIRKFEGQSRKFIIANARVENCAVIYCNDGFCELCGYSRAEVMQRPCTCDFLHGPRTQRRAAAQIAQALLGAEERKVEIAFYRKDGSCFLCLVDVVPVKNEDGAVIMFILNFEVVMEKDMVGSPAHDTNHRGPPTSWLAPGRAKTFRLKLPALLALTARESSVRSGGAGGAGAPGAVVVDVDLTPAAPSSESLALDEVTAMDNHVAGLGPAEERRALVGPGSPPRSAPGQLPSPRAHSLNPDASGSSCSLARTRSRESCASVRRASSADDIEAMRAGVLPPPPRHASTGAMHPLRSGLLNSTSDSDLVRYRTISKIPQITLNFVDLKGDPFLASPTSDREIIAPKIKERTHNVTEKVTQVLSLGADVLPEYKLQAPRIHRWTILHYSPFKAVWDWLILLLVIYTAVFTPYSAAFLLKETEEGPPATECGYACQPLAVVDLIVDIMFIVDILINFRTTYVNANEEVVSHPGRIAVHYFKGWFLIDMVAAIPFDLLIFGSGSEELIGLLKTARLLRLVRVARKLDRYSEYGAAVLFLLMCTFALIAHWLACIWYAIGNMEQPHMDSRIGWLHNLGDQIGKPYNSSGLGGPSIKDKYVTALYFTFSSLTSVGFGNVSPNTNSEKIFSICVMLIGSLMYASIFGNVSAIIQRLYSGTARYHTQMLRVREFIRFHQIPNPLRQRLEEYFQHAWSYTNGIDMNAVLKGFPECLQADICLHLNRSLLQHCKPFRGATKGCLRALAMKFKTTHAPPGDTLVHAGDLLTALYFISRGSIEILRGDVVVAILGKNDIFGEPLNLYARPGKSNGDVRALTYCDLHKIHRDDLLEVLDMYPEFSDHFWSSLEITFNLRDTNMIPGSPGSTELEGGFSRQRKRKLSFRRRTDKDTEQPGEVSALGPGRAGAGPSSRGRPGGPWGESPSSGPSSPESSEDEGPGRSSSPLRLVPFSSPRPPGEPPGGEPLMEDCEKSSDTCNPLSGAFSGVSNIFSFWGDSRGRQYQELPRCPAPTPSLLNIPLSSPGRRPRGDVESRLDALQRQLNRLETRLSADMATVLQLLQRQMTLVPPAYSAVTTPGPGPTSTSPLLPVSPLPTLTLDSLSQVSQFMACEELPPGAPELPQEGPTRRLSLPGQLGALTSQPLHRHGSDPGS

Minimum (MIC) [1] | MIC50 [1] | MIC90 [1] | MIC [2] | MIC [3] | MIC [4] | MIC [5] | MIC [6] | MIC [7] | MIC50 [8] | MIC90 [8] | Minimum (MIC) [8] | Minimum (MIC) [9] | MIC50 [9] | MIC90 [9] | Minimum (MIC) [10] | MIC50 [10] | MIC90 [10] | ATCC19606 (MIC) [11] | ATCC13883 (MIC) [12] | SMILES | other results
0.03 µg/mL | 0.06 µg/mL (≈ 0.124 µM) | 0.25 µg/mL (≈ 0.516 µM) | 0.03 µg/mL (≈ 0.0619 µM) | 0.03 µg/mL (≈ 0.0619 µM) | 0.5 µg/mL (≈ 1.03 µM) | 0.03 µg/mL (≈ 0.0619 µM) | ≤ 0.03 µg/mL | 0.03 µg/mL (≈ 0.0619 µM) | 0.25 µg/mL (≈ 0.516 µM) | 0.5 µg/mL (≈ 1.03 µM) | 0.03 | 0.03 µg/mL | 0.25 µg/mL (≈ 0.516 µM) | 0.5 µg/mL (≈ 1.03 µM) | 0.03 µg/mL | 0.25 µg/mL (≈ 0.516 µM) | 0.5 µg/mL (≈ 1.03 µM) | 0.03 µg/mL | 0.03 µg/mL | Cn1c(=O)ccc2ncc(OCCNC[C@H]3CN(c4cnc5c(n4)NC(=O)CS5)C(=O)O3)nc21 [Compound 14, (S)-5-(((2-((5-Methyl-6-oxo-5,6-dihydropyrido[2,3-b]pyrazin-3-yl)oxy)ethyl)amino)methyl)-3-(3-oxo-3,4-dihydro-2H-pyrazino[2,3-b][1,4]thiazin-6-yl)oxazolidin-2-one] | ATCC25922 (MIC) [13]: 0.03 µg/mL; ATCC27853 (MIC) [14]: 0.5 µg/mL; IC50 [15]: > 150 µM; Minimum (MIC) [16]: 0.06 µg/mL; MIC50 [16]: 0.5 µg/mL (≈ 1.03 µM); MIC90 [16]: 1 µg/mL (≈ 2.06 µM)
0.03 µg/mL | 0.25 µg/mL (≈ 0.534 µM) | 0.5 µg/mL (≈ 1.07 µM) | 0.25 µg/mL (≈ 0.534 µM) | 0.13 µg/mL (≈ 0.278 µM) | 1 µg/mL (≈ 2.13 µM) | 0.06 µg/mL (≈ 0.128 µM) | 0.06 µg/mL (≈ 0.128 µM) | 0.25 µg/mL (≈ 0.534 µM) | 0.5 µg/mL (≈ 1.07 µM) | 0.5 µg/mL (≈ 1.07 µM) | 0.06 | 0.06 µg/mL | 0.5 µg/mL (≈ 1.07 µM) | 2 µg/mL (≈ 4.27 µM) | 0.125 µg/mL | 1 µg/mL (≈ 2.13 µM) | 4 µg/mL (≈ 8.54 µM) | 0.25 µg/mL | 0.13 µg/mL | Cn1c(=O)cnc2ccc(OCCNC[C@H]3CN(c4cnc5c(n4)NC(=O)CO5)C(=O)O3)nc21 [Compound 7, (S)-6-(5-(((2-((4-methyl-3-oxo-3,4-dihydropyrido[2,3-b]pyrazin-6-yl)oxy)ethyl)amino)methyl)-2-oxooxazolidin-3-yl)-2H-pyrazino[3,2-b][1,4]oxazin-3(4H)-one] | ATCC25922 (MIC) [13]: 0.06 µg/mL; ATCC27853 (MIC) [14]: 1 µg/mL; IC50 [15]: > 300 µM; Minimum (MIC) [16]: 0.06 µg/mL; MIC50 [16]: 0.5 µg/mL (≈ 1.07 µM); MIC90 [16]: 2 µg/mL (≈ 4.27 µM)
